Laboratory results taken from article PMC9081329, “Pharmacokinetics, Mass Balance, Excretion, and Tissue Distribution of Plasmalogen Precursor PPI-1011” (Frontiers in Cell and Developmental Biology, 2022).

Assay: Single dose tissue distribution study (QWBA, LSC of blood and plasma)
Assay type: in vivo, Sprague-Dawley rats
Description: Six male rats were administered a single oral dose of [^14C]PPI-1011 at 100 mg/kg (200 μCi/kg) and one rat was sacrificed at each of the following time points after the administration of the dose: 8, 12, 18, 24, 48, or 168 h. Terminal blood was collected by cardiac puncture directly into tubes with K2EDTA, an aliquot was stored at 4°C until LSC was performed for radioactivity, while the remaining blood was processed to plasma and stored at −20°C until LSC. Following blood collection, the carcasses were frozen in a cold bath with hexanes and dry ice for at least 8 min and then dried and stored at −70°C for at least 5 h. The carcasses were transferred to a −20°C freezer for at least 12 h before embedding.
QWBA was used to determine radioactivity concentrations in the caecum (contents and mucosa), large intestine (contents and mucosa), small intestine (contents and mucosa), stomach (contents and mucosa), brain, choroid plexus, spinal cord, bone, skin, adrenal gland, pineal body, pituitary gland, thyroid gland, liver, kidney (cortex, medulla and whole kidney), urinary bladder (contents and wall), brown fat, white fat, eye (lens, uveal tract and whole eye), epididymis, prostate gland, testis, ovary, uterus, lung, exorbital lachrymal gland, Harderian gland, pancreas, salivary gland, skeletal muscle, myocardium, cardiac blood, bone marrow, lymph node, spleen, and thymus. As well, LSC was used to determine the total radioactivity in the whole blood and plasma.
The whole-body cryosectioning technique described by ([Ullberg, 1977]) was the basis for embedding and cryosectioning the rats assigned to this study. Each frozen carcass was shaved, and then the limbs and tail were removed prior to embedding. Chilled (4°C) 3% CMC (low viscosity) was utilized to provide a firm support of reinforced ice around each rat and for a secure attachment to the microtome stage. Upon thorough freezing of the embedding medium surrounding each rat, the frozen CMC block was removed from the freezing bath and four 3/8 inch holes were drilled into the block. One cryosection quality control standard (CQCS) was prepared with a known amount of radioactivity and at least 1 ml aliquots were added to each of the four drilled holes. CQCS data were utilized to evaluate the overall performance of the QWBA assay.
Each frozen rat was sagittally trimmed (50–100 μm) at −20°C until exposure of a few target tissues employing a Leica Cryomacrocut heavy-duty microtome (Leica Microsystems Inc.,). Disposable stainless steel Feather type H45L knives (Feather Safety Razor Co., Ltd.) were utilized for trimming and sectioning each frozen rat. Several thinner sections (50 μm) were discarded prior to obtaining multiple 50 μm sections at various cryosectioning levels for QWBA analysis. Upon the collection of at least 60 target tissues in multiple cryosectioning levels, the cryosections were kept in the Cryomacrocut cryochamber for a minimum of 18 h for dehydration depending upon the number of cryosections within the cryochamber. After dehydration was complete, the cryosections were transferred to ambient temperature for processing. Mounted whole-body cryosections and a set of 15 standards were sandwiched between a standard phosphor screen and an exposure cassette. All cryosections were exposed to the phosphor screen for 4-days in a cabinet protected with lead prior to scanning using a Typhoon PhosphorImager (Cytiva). MCID™ Analysis software (InterFocus Ltd.) was utilized to generate a calibration curve of the STD nominal concentrations (nCi/g) versus PhosphorImager response (counts/μm^2 minus background) by weighted (1/x) linear regression analysis ([Potchoiba et al., 1995]; [Potchoiba et al., 1998]). The linear regression curve was then utilized to determine the concentration (nCi/g) of total radioactivity in whole-body tissues and blood. Radioactivity concentrations were expressed as μg Eq/g based on the specific activity of the compound in the final dose formulations. […]

[1] = 48 h post single oral 100 mg/kg
[2] = 168 h post single oral 100 mg/kg

CC/C=C\C/C=C\C/C=C\C/C=C\C/C=C\C/C=C\CCC(=O)O[C@H](CO[14CH2]CCCCCCCCCCCCCCC)COC(=O)CCCCC1CCSS1 (stereo partly shown) [[^14C]PPI-1011]
Radioactivity concentration, Small Intestines [1]: 43.3 μg equivalents/g | Radioactivity concentration, Spinal Cord [1]: 2.56 μg equivalents/g | Radioactivity concentration, Spleen [1]: 33.1 μg equivalents/g | Radioactivity concentration, Stomach [1]: 8.01 μg equivalents/g | Radioactivity concentration, Testis [1]: 4.02 μg equivalents/g | Radioactivity concentration, Thalamus [1]: 1.91 μg equivalents/g | Radioactivity concentration, Thymus [1]: 9.58 μg equivalents/g | Radioactivity concentration, Thyroid [1]: 27.2 μg equivalents/g | Radioactivity concentration, Whole Brain [1]: 2.45 μg equivalents/g | Radioactivity concentration, Adipose - Brown [2]: 89.0 μg equivalents/g | Radioactivity concentration, Adipose - Brown (Vessel Wall) [2]: 76.7 μg equivalents/g | Radioactivity concentration, Adipose - Subcutaneous [2]: 89.3 μg equivalents/g | Radioactivity concentration, Adipose - Visceral [2]: 90.7 μg equivalents/g | Radioactivity concentration, Adrenal Gland [2]: 142 μg equivalents/g | Radioactivity concentration, Bladder Wall [2]: < 0.485 μg equivalents/g | Radioactivity concentration, Blood - QWBA [2]: 2.56 μg equivalents/g | Radioactivity concentration, Bone Marrow [2]: 4.69 μg equivalents/g | Radioactivity concentration, Cerebellum [2]: 3.59 μg equivalents/g | Radioactivity concentration, Cerebrum [2]: 2.94 μg equivalents/g | Radioactivity concentration, Choroid Plexus [2]: 10.4 μg equivalents/g | Radioactivity concentration, Colliculus [2]: 3.97 μg equivalents/g | Radioactivity concentration, Diaphragm [2]: 11.7 μg equivalents/g | Radioactivity concentration, Epididymis [2]: 7.75 μg equivalents/g | Radioactivity concentration, Esophagus [2]: 5.34 μg equivalents/g | Radioactivity concentration, Exorbital Lacrimal Gland [2]: 7.36 μg equivalents/g | Radioactivity concentration, Gastric Mucosa [2]: 14.5 μg equivalents/g | Radioactivity concentration, Harderian Gland [2]: 3.67 μg equivalents/g | Radioactivity concentration, Intra-Orbital Lacrimal Gland [2]: 5.01 μg equivalents/g | Radioactivity concentration, Kidney [2]: 14.5 μg equivalents/g | Radioactivity concentration, Large Intestines [2]: 14.0 μg equivalents/g | Radioactivity concentration, Liver [2]: 7.50 μg equivalents/g | Radioactivity concentration, Lung [2]: 11.2 μg equivalents/g | Radioactivity concentration, Lymph Node [2]: 12.3 μg equivalents/g | Radioactivity concentration, Medulla Oblongata [2]: 3.13 μg equivalents/g | Radioactivity concentration, Muscle [2]: 7.01 μg equivalents/g | Radioactivity concentration, Myocardium [2]: 13.4 μg equivalents/g | Radioactivity concentration, Nasal Turbinates [2]: 4.29 μg equivalents/g | Radioactivity concentration, Ocular - Uveal Tract [2]: 6.48 μg equivalents/g | Radioactivity concentration, Ocular - Whole Eye [2]: 1.55 μg equivalents/g | Radioactivity concentration, Olfactory Bulb [2]: 2.25 μg equivalents/g | Radioactivity concentration, Pancreas [2]: 18.2 μg equivalents/g | Radioactivity concentration, Parotid Gland [2]: 12.3 μg equivalents/g | Radioactivity concentration, Pineal Gland [2]: 12.0 μg equivalents/g | Radioactivity concentration, Pituitary Gland [2]: 12.9 μg equivalents/g | Radioactivity concentration, Preputial Gland [2]: 69.0 μg equivalents/g | Radioactivity concentration, Prostate [2]: 4.44 μg equivalents/g | Radioactivity concentration, Renal Cortex [2]: 15.3 μg equivalents/g | Radioactivity concentration, Renal Medulla [2]: 11.8 μg equivalents/g | Radioactivity concentration, Salivary Gland [2]: 15.4 μg equivalents/g | Radioactivity concentration, Seminal Vesicles [2]: < 0.485 μg equivalents/g | Radioactivity concentration, Skin - Non-Pigmented [2]: 10.2 μg equivalents/g | Radioactivity concentration, Small Intestines [2]: 139 μg equivalents/g | Radioactivity concentration, Spinal Cord [2]: 3.33 μg equivalents/g | Radioactivity concentration, Spleen [2]: 9.36 μg equivalents/g | Radioactivity concentration, Stomach [2]: 4.97 μg equivalents/g | Radioactivity concentration, Testis [2]: 3.08 μg equivalents/g | Radioactivity concentration, Thalamus [2]: 2.78 μg equivalents/g | Radioactivity concentration, Thymus [2]: 7.84 μg equivalents/g | Radioactivity concentration, Thyroid [2]: 18.9 μg equivalents/g | Radioactivity concentration, Whole Brain [2]: 3.08 μg equivalents/g | Decline of radioactivity from peak concentration, brown adipose (by 168 HPD, single dose): approximately 5 fold | Decline of radioactivity from peak concentration, subcutaneous adipose (by 168 HPD, single dose): ~2 fold | Decline of radioactivity from peak concentration, visceral adipose (by 168 HPD, single dose): ~3 fold | Average concentration in choroid plexus, pineal gland, pituitary gland versus non-circumventricular CNS tissues (seven days after single dose): approximately 4 fold | Radioactivity in urine within the urinary bladder (single dose): no detection of radioactivity | Time of highest blood concentration (single dose): 8 HPD | Time of highest peak concentration, bladder wall (single dose): 8 HPD | Time of highest peak concentration, brown adipose (single dose): 12 HPD | Time of highest peak concentration, cecum (single dose): 12 HPD | Time of highest peak concentration, choroid plexus (single dose): 12 HPD | Time of highest peak concentration, epididymis (single dose): 12 HPD | Time of highest peak concentration, esophagus (single dose): 8 HPD | Time of highest peak concentration, gastric mucosa (single dose): 8 HPD | Time of highest peak concentration, large intestines (single dose): 12 HPD | Time of highest peak concentration, pineal gland (single dose): 48 HPD | Time of highest peak concentration, pituitary gland (single dose): 18 HPD | Time of highest peak concentration, preputial gland (single dose): 12 HPD | Time of highest peak concentration, prostate (single dose): 24 HPD | Time of highest peak concentration, small intestines (single dose): 8 HPD | Time of highest peak concentration, stomach (single dose): 12 HPD | Time of highest peak concentration, subcutaneous adipose (single dose): 12 HPD | Time of highest peak concentration, testis (single dose): 18 HPD | Time of highest peak concentration, visceral adipose (single dose): 12 HPD | Time of peak levels, non-circumventricular CNS tissue (single dose): 168 HPD | Concentration in choroid plexus, pineal gland, pituitary gland versus non-circumventricular CNS tissues (throughout the time course, single dose): approximately 4 fold
